Experimental data taken from PubChem BioAssay AID686916 (Sanford-Burnham Center for Chemical Genomics, 2013).
Values joined by “and” are separate entries in the source; they are usually repeats but may differ in a detail not shown here. Equal values may be shown once. Active and inactive are the calls of the source.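 Rule for the calls: active = concentration halving Nedd8 removal by the CSN enzyme IC50 of 60 µM or lower; inactive = the rest.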

Target: COP9 signalosome complex subunit 5 (Homo sapiens) (UniProt Q92905)
Assay: Csn5 deneddylation inhibitors, retested RPN11 hits, SAR follow-up, selectivity assay for RPN11 inhibitor project, biochemical, fluorescence polarization, SCF-Nedd8-OG substrate, set 2 (AID 686916)
Settings: Csn5 deneddylation of SCF-Nedd8-OG

Chain of COP9 signalosome complex subunit 5 (Homo sapiens) (Q92905 whole entry, looked up, one chain of several): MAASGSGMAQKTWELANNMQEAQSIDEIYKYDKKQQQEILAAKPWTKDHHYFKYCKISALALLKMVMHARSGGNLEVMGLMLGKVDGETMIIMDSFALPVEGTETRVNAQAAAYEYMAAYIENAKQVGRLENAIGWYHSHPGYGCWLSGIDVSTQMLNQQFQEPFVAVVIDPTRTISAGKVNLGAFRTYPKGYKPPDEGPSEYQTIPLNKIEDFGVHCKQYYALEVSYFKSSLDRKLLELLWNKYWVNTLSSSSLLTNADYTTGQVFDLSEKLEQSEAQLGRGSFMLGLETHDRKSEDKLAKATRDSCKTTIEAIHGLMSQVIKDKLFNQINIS

Question: With `COc1cccc(C(=O)Sc2cccc3cccnc23)c1` as the compound, how does the IC50 read?
Answer: 5.57 µM

Question: How did the IC50 turn out when `CC(C)[C@H](NC(=O)c1cnc2c(SSc3cccc4cc(C(=O)N[C@H](C(=O)O)C(C)C)cnc34)cccc2c1)C(=O)O` was run?
Answer: 8.35 µM

Question: With `O=C(Sc1cccc2cccnc12)c1ccccc1Cl` as the compound, how does the IC50 read?
Answer: 19.9 µM

Question: How did the IC50 turn out when `O=C(Sc1cccc2cccnc12)c1ccc([N+](=O)[O-])cc1` was run?
Answer: 13 µM

Question: `O=C(Sc1cccc2cccnc12)c1ccc(F)cc1F` was tested. Which IC50 did it give?
Answer: 24.6 µM

Question: With `COC(=O)[C@H](C)NC(=O)c1cnc2c(SSc3cccc4cc(C(=O)N[C@@H](C)C(=O)OC)cnc34)cccc2c1` as the compound, how does the IC50 read?
Answer: 20.3 µM

Question: For `COC(=O)[C@@H]1CCCN1C(=O)c1cnc2c(SSc3cccc4cc(C(=O)N5CCC[C@H]5C(=O)OC)cnc34)cccc2c1`, which IC50 is on record?
Answer: 17.6 µM

Question: With `CC[C@@H](C)[C@H](NC(=O)c1cnc2c(SSc3cccc4cc(C(=O)N[C@H](C(=O)O)[C@H](C)CC)cnc34)cccc2c1)C(=O)O` as the compound, how does the IC50 read?
Answer: 8.57 µM

Question: `Cc1cccc(C(=O)Sc2cccc3cccnc23)c1` was tested. Which IC50 did it give?
Answer: 12.3 µM

Question: With `COC(=O)c1cnc2c(SSc3cccc4cc(C(=O)OC)cnc34)cccc2c1` as the compound, how does the IC50 read?
Answer: 20 µM

Question: `CCCc1ccc(C(=O)Sc2cccc3cccnc23)cc1` was tested. Which IC50 did it give?
Answer: 10.4 µM

Question: `COC(=O)[C@H](CO)NC(=O)c1cnc2c(SSc3cccc4cc(C(=O)N[C@@H](CO)C(=O)OC)cnc34)cccc2c1` was tested. Which IC50 did it give?
Answer: 36.2 µM

Question: For `COc1ccc(C(=O)Sc2cccc3cccnc23)cc1`, which IC50 is on record?
Answer: 13.7 µM

Question: `COc1ccc(C(=O)Sc2cccc3cccnc23)cc1OC` was tested. Which IC50 did it give?
Answer: 14.3 µM

Question: How did the IC50 turn out when `COc1ccc(C(=O)Sc2cccc3cccnc23)cc1F` was run?
Answer: 5 µM

Question: For `COC(=O)C[C@H](NC(=O)c1cnc2c(SSc3cccc4cc(C(=O)N[C@@H](CC(=O)OC)C(=O)OC)cnc34)cccc2c1)C(=O)OC`, which IC50 is on record?
Answer: 13 µM

Question: `O=C(Sc1cccc2cccnc12)c1cccc2ccccc12` was tested. Which IC50 did it give?
Answer: 14.3 µM

Question: With `Cc1ccccc1C(=O)Sc1cccc2cccnc12` as the compound, how does the IC50 read?
Answer: 18.2 µM

Question: For `COC(=O)[C@H](C)N(C)C(=O)c1cnc2c(SSc3cccc4cc(C(=O)N(C)[C@@H](C)C(=O)OC)cnc34)cccc2c1`, which IC50 is on record?
Answer: 12.8 µM

Question: For `O=C(Sc1cccc2cccnc12)c1ccc(C(F)(F)F)cc1`, which IC50 is on record?
Answer: 5.25 µM

Question: For `CC(C)(C)OC(=O)CCNC(=O)c1cnc2c(SSc3cccc4cc(C(=O)NCCC(=O)OC(C)(C)C)cnc34)cccc2c1`, which IC50 is on record?
Answer: 26.4 µM

Question: Which IC50 does the source give for `O=C(Sc1cccc2cccnc12)c1ccccc1[N+](=O)[O-]` here?
Answer: 9.08 µM

Question: Which IC50 does the source give for `O=C(Sc1cccc2cccnc12)c1cccc(Cl)c1` here?
Answer: 2.63 µM

Question: `N#Cc1ccc(C(=O)Sc2cccc3cccnc23)cc1` was tested. Which IC50 did it give?
Answer: > 95 µM (inactive)

Question: Which IC50 does the source give for `O=C(Sc1cccc2cccnc12)c1ccc(F)cc1` here?
Answer: 3.12 µM

Question: With `C[C@@H](C(=O)O)N(C)C(=O)c1cnc2c(SSc3cccc4cc(C(=O)N(C)[C@@H](C)C(=O)O)cnc34)cccc2c1` as the compound, how does the IC50 read?
Answer: 13 µM

Question: For `CC(C)C[C@H](NC(=O)c1cnc2c(SSc3cccc4cc(C(=O)N[C@@H](CC(C)C)C(=O)O)cnc34)cccc2c1)C(=O)O`, which IC50 is on record?
Answer: 11.8 µM

Question: `O=C(Sc1cccc2cccnc12)c1ccccc1OC(F)(F)F` was tested. Which IC50 did it give?
Answer: 17.8 µM

Question: With `CC[C@@H](C)[C@H](NC(=O)c1cnc2c(SSc3cccc4cc(C(=O)N[C@H](C(=O)OC)[C@@H](C)CC)cnc34)cccc2c1)C(=O)OC` as the compound, how does the IC50 read?
Answer: 4.73 µM

Question: For `O=C(Sc1cccc2cccnc12)c1ccc(F)c(F)c1`, which IC50 is on record?
Answer: 4.92 µM

Question: How did the IC50 turn out when `O=C(Sc1cccc2cccnc12)C1CCCCC1` was run?
Answer: 4.07 µM

Question: For `COC(=O)[C@@H](NC(=O)c1cnc2c(SSc3cccc4cc(C(=O)N[C@H](C(=O)OC)C(C)C)cnc34)cccc2c1)C(C)C`, which IC50 is on record?
Answer: 11.8 µM

Question: With `COC(=O)[C@H](C)NC(=O)c1ccnc2c(SSc3cccc4c(C(=O)N[C@@H](C)C(=O)OC)ccnc34)cccc12` as the compound, how does the IC50 read?
Answer: 22.2 µM

Question: For `O=C(Sc1cccc2cccnc12)c1ccc2c(c1)OCO2`, which IC50 is on record?
Answer: 40.1 µM

Question: `O=C(Sc1cccc2cccnc12)c1c(Cl)cccc1Cl` was tested. Which IC50 did it give?
Answer: 17.4 µM

Question: How did the IC50 turn out when `O=C(O)[C@@H]1CCCN1C(=O)c1cnc2c(SSc3cccc4cc(C(=O)N5CCC[C@H]5C(=O)O)cnc34)cccc2c1` was run?
Answer: 6.36 µM

Question: How did the IC50 turn out when `N#Cc1cccc(C(=O)Sc2cccc3cccnc23)c1` was run?
Answer: 33.3 µM

Question: For `COC(=O)[C@H](CC(C)C)NC(=O)c1cnc2c(SSc3cccc4cc(C(=O)N[C@@H](CC(C)C)C(=O)OC)cnc34)cccc2c1`, which IC50 is on record?
Answer: 13.9 µM

Question: With `Cc1ccc(C(=O)Sc2cccc3cccnc23)cc1` as the compound, how does the IC50 read?
Answer: > 95 µM (inactive)

Question: With `O=C(Sc1cccc2cccnc12)c1ccccc1I` as the compound, how does the IC50 read?
Answer: 19.4 µM

Question: For `O=C(Sc1cccc2cccnc12)c1ccccc1`, which IC50 is on record?
Answer: 11.2 µM

Question: Which IC50 does the source give for `CCOc1ccccc1C(=O)Sc1cccc2cccnc12` here?
Answer: 11.7 µM and 31.8 µM

Question: Which IC50 does the source give for `O=C(Sc1cccc2cccnc12)c1ccccc1F` here?
Answer: > 95 µM (inactive)

Question: For `CC(C)Cc1ccc(C(=O)Sc2cccc3cccnc23)cc1`, which IC50 is on record?
Answer: 15.6 µM

Question: With `O=C(Sc1cccc2cccnc12)c1cccc(C(F)(F)F)c1` as the compound, how does the IC50 read?
Answer: > 95 µM (inactive)

Question: `O=C(Sc1cccc2cccnc12)c1ccccc1Br` was tested. Which IC50 did it give?
Answer: 7.91 µM

Question: Which IC50 does the source give for `O=C(O)c1cnc2c(SSc3cccc4cc(C(=O)O)cnc34)cccc2c1` here?
Answer: 4.28 µM

Question: How did the IC50 turn out when `COc1ccccc1C(=O)Sc1cccc2cccnc12` was run?
Answer: 20.7 µM and 5.61 µM
